# Source: the supplement of paper PMC4932681
# Counter-ions that a name gives are not always drawn.
# Columns and labels:
# [1] = system: T-47D; assay: drug sensitivity score (DSS) (DSS (dimensionless)); higher = more sensitive; extreme values may be limits of the assay; conditions: 72 h
# Description: (§1)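 FIMM FO2B library drugs were tested at 5 concentrations (10,000-fold range) for 72 h, with CellTiter-Glo viability normalised to DMSO and benzethonium chloride controls. The Drug Sensitivity Score (DSS) is computed from the fitted logistic dose-response curve (area-based; 0 = inactive). Resistant lines and the 'in 1µM tamoxifen' arms were tested in 1 µM 4-OH-tamoxifen.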
# [2] = system: T-47D Tam1; assay: as above; conditions: 4-OH-tamoxifen in medium 1 µM; 72 h
# Description: as §1
# [3] = system: BT-474; assay: as above; conditions: 72 h
# Description: as §1
# [4] = system: ZR-75-1; assay: as above; conditions: 72 h
# Description: as §1
# [5] = system: MCF-7 Tam1; assay: as above; conditions: 4-OH-tamoxifen in medium 1 µM; 72 h
# Description: as §1
# [6] = system: MCF-7; assay: as above; conditions: 72 h
# Description: as §1
# [7] = system: T-47D Tam2; assay: as above; conditions: 4-OH-tamoxifen in medium 1 µM; 72 h
# Description: as §1
# [8] = system: ZR-75-1 Tam2; assay: as above; conditions: 4-OH-tamoxifen in medium 1 µM; 72 h
# Description: as §1
# [9] = system: BT-474 Tam2; assay: as above; conditions: 4-OH-tamoxifen in medium 1 µM; 72 h
# Description: as §1
# [10] = system: BT-474 Tam1; assay: as above; conditions: 4-OH-tamoxifen in medium 1 µM; 72 h
# Description: as §1
# [11] = system: ZR-75-1 Tam1; assay: as above; conditions: 4-OH-tamoxifen in medium 1 µM; 72 h
# Description: as §1
# [12] = system: T-47D; assay: relative IC50 (midpoint of fitted logistic curve, plateau may be below 50% inhibition; CellTiter-Glo viability); higher = less potent; conditions: 72 h
# Description: (§2)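 FIMM FO2B library drugs were plated at 5 concentrations spanning a 10,000-fold range in 384-well plates. Cells were incubated for 72 h at 37 °C and viability was read by CellTiter-Glo, normalised to DMSO (0% inhibition) and 100 µM benzethonium chloride (100% inhibition). IC50 values come from logistic dose-response fits (Breeze pipeline). Tamoxifen-resistant lines and the 'in 1µM tamoxifen' parental arms were tested in medium with 1 µM 4-OH-tamoxifen.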
# [13] = system: BT-474; assay: as above; conditions: 72 h
# Description: as §2
# [14] = system: ZR-75-1; assay: as above; conditions: 72 h
# Description: as §2
# [15] = system: MCF-7; assay: as above; conditions: 72 h
# Description: as §2
# [16] = system: ZR-75-1 Tam2; assay: as above; conditions: 4-OH-tamoxifen in medium 1 µM; 72 h
# Description: as §2
# [17] = system: BT-474 Tam2; assay: as above; conditions: 4-OH-tamoxifen in medium 1 µM; 72 h
# Description: as §2
# [18] = system: BT-474 Tam1; assay: as above; conditions: 4-OH-tamoxifen in medium 1 µM; 72 h
# Description: as §2
# [19] = system: ZR-75-1 Tam1; assay: as above; conditions: 4-OH-tamoxifen in medium 1 µM; 72 h
# Description: as §2
# [20] = system: T-47D Tam1; assay: as above; conditions: 4-OH-tamoxifen in medium 1 µM; 72 h
# Description: as §2
relative IC50 ([12]; 4-OH-tamoxifen in medium 0 µM),relative IC50 ([12]; 4-OH-tamoxifen in medium 1 µM),relative IC50 ([13]; 4-OH-tamoxifen in medium 0 µM),relative IC50 ([15]; 4-OH-tamoxifen in medium 0 µM),relative IC50 [17],relative IC50 [18],relative IC50 ([13]; 4-OH-tamoxifen in medium 1 µM),relative IC50 [20],relative IC50 ([15]; 4-OH-tamoxifen in medium 1 µM),SMILES,drug sensitivity score ([1]; 4-OH-tamoxifen in medium 0 µM),drug sensitivity score ([1]; 4-OH-tamoxifen in medium 1 µM),drug sensitivity score [2],drug sensitivity score ([3]; 4-OH-tamoxifen in medium 0 µM),drug sensitivity score ([3]; 4-OH-tamoxifen in medium 1 µM),drug sensitivity score ([4]; 4-OH-tamoxifen in medium 0 µM),drug sensitivity score ([4]; 4-OH-tamoxifen in medium 1 µM),drug sensitivity score [5],drug sensitivity score ([6]; 4-OH-tamoxifen in medium 0 µM),drug sensitivity score ([6]; 4-OH-tamoxifen in medium 1 µM),drug sensitivity score [7],drug sensitivity score [8],drug sensitivity score [9],drug sensitivity score [10],drug sensitivity score [11],relative IC50 ([14]; 4-OH-tamoxifen in medium 0 µM),relative IC50 ([14]; 4-OH-tamoxifen in medium 1 µM),relative IC50 [16],relative IC50 [19]
> 0.25 µM,> 0.25 µM,> 0.25 µM,> 0.25 µM,> 0.25 µM,> 0.25 µM,–,–,–,CC(=O)Nc1cccc(-n2c(=O)n(C3CC3)c(=O)c3c(Nc4ccc(I)cc4F)n(C)c(=O)c(C)c32)c1,0,0.259,2.19,0,0.246,0,0,0.101,0,3.01,2.69,0,0,0,0,> 0.25 µM,> 0.25 µM,> 0.25 µM,> 0.25 µM
–,–,> 10 µM,–,–,3.66 µM,1.59 µM,> 10 µM,–,COc1cc(OC2CCN(C)CC2)ccc1Nc1ncc2c(n1)n(C1CCCC1)c(=O)n2C [AZ 3146],1.1,0.111,0,0,7.15,0.724,0.0431,0.007,0.951,0.135,0.886,0.671,0.781,3.57,0.233,–,–,–,–
3.89 µM,3.99 µM,3.44 µM,2.99 µM,2.81 µM,3.73 µM,3.39 µM,1.82 µM,3.28 µM,Nc1ccccc1NC(=O)c1ccc(CNC(=O)OCc2cccnc2)cc1 [Entinostat],2.94,1.33,5.11,3.08,4.39,1.19,0,0,3.59,1.94,0.0349,0.992,3.18,3.73,1.06,3.96 µM,–,–,–
–,> 10 µM,–,–,–,–,3.61 µM,> 10 µM,–,Cc1c(C(=O)Nc2ccc(N3C[C@@H](C)O[C@@H](C)C3)nc2)cccc1-c1ccc(OC(F)(F)F)cc1 [Erismodegib (NVP-LDE225)],0.587,0,0,0.627,1.78,0,0.747,0.695,0.927,0.267,1.05,0,1.6,0.226,0.271,> 10 µM,–,> 10 µM,–
> 1 µM,> 1 µM,> 1 µM,–,> 1 µM,> 1 µM,–,–,–,Cn1cnc2c(F)c(Nc3ccc(Br)cc3F)c(C(=O)NOCCO)cc21 [MEK-162 (ARRY-162)],0,0,3.1,0,1.07,0,0,0,0.0194,1.02,0.511,0,0,0,0,> 1 µM,> 1 µM,> 1 µM,> 1 µM
–,> 10 µM,–,0.553 µM,4.22 µM,4 µM,3.74 µM,–,2.65 µM,O=C(c1ccc(OCCN2CCCCC2)cc1)c1c(-c2ccc(O)cc2)sc2cc(O)ccc12 [Raloxifene  HCl],0.0005,0,0.0352,0.75,2.42,0.0043,0.0503,0.681,3.69,1.88,1.8,0,1.14,1.74,0,–,–,> 10 µM,> 10 µM
–,–,3.83 µM,3.54 µM,2.43 µM,3.61 µM,3.94 µM,0.37 µM,3.34 µM,CNC(=O)c1cc(Oc2ccc(NC(=O)Nc3ccc(Cl)c(C(F)(F)F)c3)c(F)c2)ccn1 [Regorafenib (BAY 73-4506)],1.1,0.365,9.09,1.48,3.22,0.232,0.299,0,2.49,1.46,0.22,2.33,5.3,4.57,0.695,–,–,1.94 µM,–
> 10 µM,> 10 µM,> 10 µM,–,> 10 µM,> 10 µM,> 10 µM,–,–,CC[C@H](CO)Nc1nc(NCc2ccccc2)c2ncn(C(C)C)c2n1 [Seliciclib (Roscovitine)],0,0,4,0,0,0,0,0.0488,0.816,0.217,0.682,0,0,0,0,> 10 µM,> 10 µM,> 10 µM,> 10 µM

# Continued, compound first:
SMILES,relative IC50 ([12]; 4-OH-tamoxifen in medium 0 µM),relative IC50 ([12]; 4-OH-tamoxifen in medium 1 µM),relative IC50 ([13]; 4-OH-tamoxifen in medium 0 µM),relative IC50 ([15]; 4-OH-tamoxifen in medium 0 µM),relative IC50 [17],relative IC50 [18],relative IC50 ([13]; 4-OH-tamoxifen in medium 1 µM),relative IC50 [20],relative IC50 ([15]; 4-OH-tamoxifen in medium 1 µM),drug sensitivity score ([1]; 4-OH-tamoxifen in medium 0 µM),drug sensitivity score ([1]; 4-OH-tamoxifen in medium 1 µM),drug sensitivity score [2],drug sensitivity score ([3]; 4-OH-tamoxifen in medium 0 µM),drug sensitivity score ([3]; 4-OH-tamoxifen in medium 1 µM),drug sensitivity score ([4]; 4-OH-tamoxifen in medium 0 µM),drug sensitivity score ([4]; 4-OH-tamoxifen in medium 1 µM),drug sensitivity score [5],drug sensitivity score ([6]; 4-OH-tamoxifen in medium 0 µM),drug sensitivity score ([6]; 4-OH-tamoxifen in medium 1 µM),drug sensitivity score [7],drug sensitivity score [8],drug sensitivity score [9],drug sensitivity score [10],drug sensitivity score [11],relative IC50 ([14]; 4-OH-tamoxifen in medium 0 µM),relative IC50 ([14]; 4-OH-tamoxifen in medium 1 µM),relative IC50 [16],relative IC50 [19]
c1ccc2c(CCNc3ccc(Nc4ccncc4)cc3)c[nH]c2c1,–,> 10 µM,> 10 µM,3.72 µM,3.9 µM,3.22 µM,3.98 µM,–,–,0.192,0,0.685,0,3.42,0.0538,0.973,0.0212,2.88,0.416,0.542,1.69,1.44,5.04,0.823,–,–,2.76 µM,–
CC(C)c1c(C(=O)Nc2ccccc2)c(-c2ccccc2)c(-c2ccc(F)cc2)n1CC[C@@H](O)C[C@@H](O)CC(=O)O [Atorvastatin],1.82 µM,3.21 µM,–,–,–,–,> 10 µM,–,–,2.75,1.73,3.38,0.471,0,4.64,2.87,0,0.619,1.69,0.823,3.56,2.17,0.517,3.76,1.17 µM,1.65 µM,1.43 µM,1.72 µM
CO[C@H]1C[C@@H]2CC[C@@H](C)[C@@](O)(O2)C(=O)C(=O)N2CCCC[C@H]2C(=O)O[C@H]([C@H](C)C[C@@H]2CC[C@@H](OCCO)[C@H](OC)C2)CC(=O)[C@H](C)/C=C(\C)[C@@H](O)[C@@H](OC)C(=O)[C@H](C)C[C@H](C)/C=C/C=C/C=C/1C [Everolimus],–,–,–,0.00104 µM,–,–,–,–,0.000952 µM,5.82,2.41,4.62,7.06,0.135,8.05,4.22,0.336,11.6,8.24,3.34,9.02,2.18,1.16,4.45,0.00127 µM,0.00347 µM,0.00123 µM,0.00352 µM
CO[C@@H]1[C@H](N(C)C(=O)c2ccccc2)C[C@H]2O[C@]1(C)n1c3ccccc3c3c4c(c5c6ccccc6n2c5c31)C(=O)NC4 [Midostaurin (PKC412)],–,1.81 µM,–,–,–,–,0.305 µM,1.49 µM,–,1.37,3.14,3.03,3.45,7.09,0,0,1.28,0.329,0.519,1.85,0,1.88,0.189,0,> 10 µM,> 10 µM,> 10 µM,> 10 µM
COc1ccc(C2=N[C@@H](c3ccc(Cl)cc3)[C@@H](c3ccc(Cl)cc3)N2C(=O)N2CCNC(=O)C2)c(OC(C)C)c1 [Nutlin-3],> 10 µM,> 10 µM,> 10 µM,–,–,3.21 µM,–,–,2.08 µM,0,0,0.605,0,0.0005,1.96,2.65,0.214,2.64,3.36,0.429,4.17,2.34,1.52,2.29,2.79 µM,–,1.35 µM,1.9 µM
CO[C@H]1C[C@@H]2CC[C@@H](C)[C@@](O)(O2)C(=O)C(=O)N2CCCC[C@H]2C(=O)O[C@H]([C@H](C)C[C@@H]2CC[C@@H](OP(C)(C)=O)[C@H](OC)C2)CC(=O)[C@H](C)/C=C(\C)[C@@H](O)[C@@H](OC)C(=O)[C@H](C)C[C@H](C)/C=C/C=C/C=C/1C [Ridaforolimus],0.00563 µM,–,–,0.00103 µM,–,–,> 0.1 µM,0.00206 µM,0.00328 µM,4.69,1.51,5.75,6.16,0,8.67,4.9,0.718,12.2,5.81,2.97,10.1,2.86,2,5.15,0.00123 µM,0.00176 µM,0.001 µM,0.00327 µM
CO[C@H]1C[C@@H]2CC[C@@H](C)[C@@](O)(O2)C(=O)C(=O)N2CCCC[C@H]2C(=O)O[C@H]([C@H](C)C[C@@H]2CC[C@@H](OC(=O)C(C)(CO)CO)[C@H](OC)C2)CC(=O)[C@H](C)/C=C(\C)[C@@H](O)[C@@H](OC)C(=O)[C@H](C)C[C@H](C)/C=C/C=C/C=C/1C [Temsirolimus],–,–,–,0.000493 µM,–,–,> 0.1 µM,0.00204 µM,0.002 µM,3.79,0.468,5.45,0.668,0,8.12,4.72,0.189,10.3,6.12,2.09,8.51,0.262,1.35,4.48,0.000917 µM,–,0.00108 µM,0.00267 µM
